Patent US20110117055A1, “Methods of Treating Hepatitis C Virus with Oxoacetamide Compounds” (priority 2009, published 2011)

System: HCV2aChLuc virus
Experiment: In vitro HCVcc entry assay: HCV2aChLuc virus infection of Huh7 cells, Renilla luciferase read-out
Format: cell-based, HCV genotype 2a
Details: Hepatitis C virus, Huh-7, read-out: Activity class (IC50), tested according to the method of Example 3

Going from COc1c(NC(=O)C(=O)c2ccc(OCCN3CCOCC3)c3ccccc23)cc(C(C)(C)C)cc1S(=O)(=O)N(C)C [Compound 2, N-(5-tert-butyl-3-(N,N-dimethylsulfamoyl)-2-methoxyphenyl)-2-(4-(2-morpholinoethoxy)naphthalen-1-yl)-2-oxoacetamide] to COc1c(C)cc(C(C)(C)C)cc1NC(=O)C(=O)c1ccc(OCCN2CCOCC2)c2ccccc12 [Compound 31], the IC50 rises from less than 5 nM to greater than 500 nM. The first is the more potent here.

First: COc1c(NC(=O)C(=O)c2ccc(OCCN(CCO)CCO)c3ccccc23)cc(C(C)(C)C)cc1NS(C)(=O)=O [Compound 3, 2-(4-(2-(bis(2-hydroxyethyl)amino)ethoxy)-naphthalen-1-yl)-N-(5-tert-butyl-2-methoxy-3-(methylsulfonamido)phenyl)-2-oxoacetamide]
Second: COc1c(NC(=O)C(=O)c2ccc(OCCn3ccnc3)c3ccccc23)cc(C(C)(C)C)cc1NS(C)(=O)=O [Compound 55]
The IC50 of the first is lower: less than 5 nM for the first, 5 to 500 nM for the second.

COc1c(C#N)cc(C(C)(C)C)cc1NC(=O)C(=O)c1ccc(OCCN2CCOCC2)c2ccccc12 [Compound 4, N-(5-tert-butyl-3-cyano-2-methoxyphenyl)-2-(4-(2-morpholinoethoxy)naphthalen-1-yl)-2-oxoacetamide] and CNC(=O)c1cc(C(C)(C)C)cc(NC(=O)C(=O)c2ccc(OCCN3CCOCC3)c3ccccc23)c1OC [Compound 6, 5-tert-butyl-2-methoxy-N-methyl-3-(2-(4-(2-morpholinoethoxy)naphthalen-1-yl)-2-oxoacetamido)benzamide] cannot be ordered by IC50: less than 5 nM for the first, less than 5 nM for the second.

CCNC(=O)c1cc(C(C)(C)C)cc(NC(=O)C(=O)c2ccc(OCCN3CCOCC3)c3ccccc23)c1OC [Compound 7, 5-tert-butyl-N-ethyl-2-methoxy-3-(2-(4-(2-morpholinoethoxy)naphthalen-1-yl)-2-oxoacetamido)benzamide] and CCCNC(=O)c1cc(C(C)(C)C)cc(NC(=O)C(=O)c2ccc(OCCN3CCOCC3)c3ccccc23)c1OC [Compound 18, 5-tert-butyl-2-methoxy-3-(2-(4-(2-morpholinoethoxy)naphthalen-1-yl)-2-oxoacetamido)-N-propylbenzamide] cannot be ordered by IC50: less than 5 nM for the first, less than 5 nM for the second.

CCNC(=O)c1cc(C(C)(C)C)cc(NC(=O)C(=O)c2ccc(OC)c3ccccc23)c1OC [Compound 8, 5-tert-butyl-N-ethyl-2-methoxy-3-(2-(4-methoxynaphthalen-1-yl)-2-oxoacetamido)benzamide] and COc1c(NC(=O)C(=O)c2ccc(OC)c3ccccc23)cc(C(C)(C)C)cc1C(=O)NCC1CC1 [Compound 17, 5-tert-butyl-N-(cyclopropylmethyl)-2-methoxy-3-(2-(4-methoxynaphthalen-1-yl)-2-oxoacetamido)benzamide] cannot be ordered by IC50: less than 5 nM for the first, less than 5 nM for the second.

COCCNC(=O)c1cc(C(C)(C)C)cc(NC(=O)C(=O)c2ccc(OCCN3CCOCC3)c3ccccc23)c1OC [Compound 9, 5-tert-butyl-2-methoxy-N-(2-methoxyethyl)-3-(2-(4-(2-morpholinoethoxy)naphthalen-1-yl)-2-oxoacetamido)benzamide] and COc1c(NC(=O)C(=O)c2ccc(OCCN3CCOCC3)c3ccccc23)cc(C(C)(C)C)cc1C(=O)Nc1ccccn1 [Compound 10, 5-tert-butyl-2-methoxy-3-(2-(4-(2-morpholinoethoxy)naphthalen-1-yl)-2-oxoacetamido)-N-(pyridin-2-yl)benzamide] cannot be ordered by IC50: less than 5 nM for the first, less than 5 nM for the second.

COC(=O)c1sc(C(C)(C)C)cc1NC(=O)C(=O)c1ccc(OCCN2CCOCC2)c2ccccc12 [Compound 11, methyl 5-tert-butyl-3-(2-(4-(2-morpholinoethoxy)naphthalen-1-yl)-2-oxoacetamido)thiophene-2-carboxylate] and CNC(=O)c1sc(C(C)(C)C)cc1NC(=O)C(=O)c1ccc(OCCN2CCOCC2)c2ccccc12 [Compound 12, 5-tert-butyl-N-methyl-3-(2-(4-(2-morpholinoethoxy)naphthalen-1-yl)-2-oxoacetamido)thiophene-2-carboxamide] cannot be ordered by IC50: less than 5 nM for the first, less than 5 nM for the second.

First: COc1c(NC(=O)C(=O)c2ccc(OCCN3CCOCC3)c3ccccc23)cc(C)cc1NS(C)(=O)=O [Compound 13, N-(2-methoxy-5-methyl-3-(methylsulfonamido)phenyl)-2-(4-(2-morpholinoethoxy)naphthalen-1-yl)-2-oxoacetamide]
Second: COc1c(NC(=O)C(=O)c2ccc(OCCN3CCN(C)CC3)c3ccccc23)cc(C(C)(C)C)cc1NS(C)(=O)=O [Compound 51]
The IC50 of the first is lower: 5 to 500 nM for the first, greater than 500 nM for the second. The first is the more potent here.

COc1ccc(C(C)(C)C)cc1NC(=O)C(=O)c1ccc(OC)c2ccccc12 [Compound 14, N-(5-tert-butyl-2-methoxyphenyl)-2-(4-methoxynaphthalen-1-yl)-2-oxoacetamide] and CCOc1ccc(C(=O)C(=O)Nc2cc(C(C)(C)C)ccc2OC)c2ccccc12 [Compound 19, N-(5-tert-butyl-2-methoxyphenyl)-2-(4-ethoxynaphthalen-1-yl)-2-oxoacetamide] cannot be ordered by IC50: less than 5 nM for the first, less than 5 nM for the second.

Going from COc1ccc(C2CCCCC2)cc1NC(=O)C(=O)c1ccc(OCCN2CCOCC2)c2ccccc12 [Compound 15, N-(5-cyclohexyl-2-methoxyphenyl)-2-(4-(2-morpholinoethoxy)naphthalen-1-yl)-2-oxoacetamide] to COc1ccc(C(F)(F)F)cc1NC(=O)C(=O)c1ccc(OCCN2CCOCC2)c2ccccc12 [Compound 28], the IC50 rises from less than 5 nM to greater than 500 nM.

First: COc1ccc(C(C)(C)c2ccccc2)cc1NC(=O)C(=O)c1ccc(OCCN2CCOCC2)c2ccccc12 [Compound 16, N-(2-methoxy-5-(2-phenylpropan-2-yl)phenyl)-2-(4-(2-morpholinoethoxy)naphthalen-1-yl)-2-oxoacetamide]
Second: CCOc1ccc(C(C)(C)C)cc1NC(=O)C(=O)c1ccc(OCCN2CCOCC2)c2ccccc12 [Compound 41]
The IC50 of the first is lower: less than 5 nM for the first, greater than 500 nM for the second. The first is the more potent here.

First: COc1ccc(C(C)(C)C)cc1NC(=O)C(=O)c1ccc(OC(C)C)c2ccccc12 [Compound 20, N-(5-tert-butyl-2-methoxyphenyl)-2-oxo-2-[4-(propan-2-yloxy)naphthalen-1-yl]acetamide]
Second: CC(C)Oc1ccc(C(C)(C)C)cc1NC(=O)C(=O)c1ccc(OCCN2CCOCC2)c2ccccc12 [Compound 42]
The IC50 of the first is lower: less than 5 nM for the first, greater than 500 nM for the second.

COc1c(NC(=O)C(=O)c2ccc(OCCN3CCOCC3)c3ccccc23)cc(C(C)(C)C)cc1NC(=O)N1CCCC1 [Compound 22] and COc1c(NC(=O)C(=O)c2ccc(OCCN3CCOCC3)c3ccccc23)cc(C(C)(C)C)cc1C(=O)N1CCCCC1 [Compound 25] fall in the same range of IC50: 5 to 500 nM for the first, 5 to 500 nM for the second.

First: CCC(C)(C)c1cc(NC(=O)C(=O)c2ccc(OCCN3CCOCC3)c3ccccc23)c(OC)c(C(C)(C)CC)c1 [Compound 23]
Second: Cc1cc(C(C)(C)C)cc(NC(=O)C(=O)c2ccc(OCCN3CCOCC3)c3ccccc23)c1O [Compound 30]
The IC50 of the first is lower: 5 to 500 nM for the first, greater than 500 nM for the second. The first is the more potent here.

COc1c(NC(=O)C(=O)c2ccc(OCCN3CCOCC3)c3ccccc23)cc(C(C)(C)C)cc1C(=O)N1CCOCC1 [Compound 24] and COc1c(NC(=O)C(=O)c2ccc(OCCN3CCOCC3)c3ccccc23)cc(C(C)(C)C)cc1C(=O)N1CCNC(=O)C1 [Compound 26] fall in the same range of IC50: 5 to 500 nM for the first, 5 to 500 nM for the second.

CC(C)(C)c1cccc(NC(=O)C(=O)c2ccc(OCCN3CCOCC3)c3ccccc23)c1 [Compound 27] and CC(C)(C)c1ccc(NC(=O)C(=O)c2ccc(OCCN3CCOCC3)c3ccccc23)cc1 [Compound 32] cannot be ordered by IC50: greater than 500 nM for the first, greater than 500 nM for the second.

CC(C)(C)c1cc(CN2CCOCC2)c(O)c(NC(=O)C(=O)c2ccc(OCCN3CCOCC3)c3ccccc23)c1 [Compound 29] and CC(C)(C)c1cc(NC(=O)C(=O)c2ccc(OCCN3CCOCC3)c3ccccc23)c(O)c(C(N)=O)c1 [Compound 33] cannot be ordered by IC50: greater than 500 nM for the first, greater than 500 nM for the second.

CC(C)(C)c1cc(NC(=O)C(=O)c2ccc(OCCN3CCOCC3)c3ccccc23)n(-c2ccccc2)n1 [Compound 34] and COc1ccc(-n2nc(C(C)(C)C)cc2NC(=O)C(=O)c2ccc(OCCN3CCOCC3)c3ccccc23)cc1 [Compound 35] cannot be ordered by IC50: greater than 500 nM for the first, greater than 500 nM for the second.

Cc1ccc(-n2nc(C(C)(C)C)cc2NC(=O)C(=O)c2ccc(OCCN3CCS(=O)(=O)CC3)c3ccccc23)cc1 [Compound 36] and Cc1ccc(-n2nc(C(C)(C)C)cc2NC(=O)C(=O)c2ccc(OCCN3CC[S+]([O-])CC3)c3ccccc23)cc1 [Compound 37] cannot be ordered by IC50: greater than 500 nM for the first, greater than 500 nM for the second.

Cc1ccc(-n2nc(C(C)(C)C)cc2NC(=O)C(=O)c2ccc(OCCN3CCCOCC3)c3ccccc23)cc1 [Compound 38] and Cc1cc(-n2nc(C(C)(C)C)cc2NC(=O)C(=O)c2ccc(OCCN3CCOCC3)c3ccccc23)ccc1F [Compound 45] cannot be ordered by IC50: greater than 500 nM for the first, greater than 500 nM for the second.

Cc1ccc(-n2nc(C(C)(C)C)cc2NC(=O)C(=O)c2ccc(CCN3CCNCC3)c3ccccc23)cc1 [Compound 39] and Cc1cccc(-n2nc(C(C)(C)C)cc2NC(=O)C(=O)c2ccc(OCCN3CCOCC3)c3ccccc23)c1C [Compound 49] cannot be ordered by IC50: greater than 500 nM for the first, greater than 500 nM for the second.

CC(C)(C)c1ccccc1NC(=O)C(=O)c1ccc(OCCN2CCOCC2)c2ccccc12 [Compound 43] and CC(C)(C)c1cc(NC(=O)C(=O)c2ccc(OCCN3CCOCC3)c3ccccc23)[nH]n1 [Compound 44] cannot be ordered by IC50: greater than 500 nM for the first, greater than 500 nM for the second.

CC(=O)n1nc(C(C)(C)C)cc1NC(=O)C(=O)c1ccc(OCCN2CCOCC2)c2ccccc12 [Compound 46] and Cn1nc(C(C)(C)C)cc1NC(=O)C(=O)c1ccc(OCCN2CCOCC2)c2ccccc12 [Compound 50] cannot be ordered by IC50: greater than 500 nM for the first, greater than 500 nM for the second.

CC(C)(C)c1cc(C(F)(F)F)nc(NC(=O)C(=O)c2ccc(OCCN3CCOCC3)c3ccccc23)n1 [Compound 47] and CC(C)(C)c1cc(N)nc(NC(=O)C(=O)c2ccc(OCCN3CCOCC3)c3ccccc23)n1 [Compound 48] cannot be ordered by IC50: greater than 500 nM for the first, greater than 500 nM for the second.

CCOC(=O)N1CCN(CCOc2ccc(C(=O)C(=O)Nc3cc(C(C)(C)C)cc(NS(C)(=O)=O)c3OC)c3ccccc23)CC1 [Compound 52] and COc1c(NC(=O)C(=O)c2ccc(OCCN3CCN(C(C)=O)CC3)c3ccccc23)cc(C(C)(C)C)cc1NS(C)(=O)=O [Compound 54] fall in the same range of IC50: 5 to 500 nM for the first, 5 to 500 nM for the second.

COc1c(NC(=O)C(=O)c2ccc(OCCN3CCNC(=O)C3)c3ccccc23)cc(C(C)(C)C)cc1NS(C)(=O)=O [Compound 53] was tested, and the IC50 was greater than 500 nM.
